Test: Safety and tolerability: adverse events, dose-limiting toxicities, MTD, RP2D (Phase 1A/1B)
Type: in vivo
Protocol: This was an open-label, Phase 1, dose-escalation/dose-expansion study, conducted across six study centres in Australia. The dose-escalation phase evaluated twice-daily (BID) and once-daily (QD) dosing, and the dose-expansion phase evaluated the BID RP2D from the dose-escalation phase and food effects (Fig. 1). The food-effects cohort comprised two sequences: fast followed by fed (sequence 1) and fed followed by fast (sequence 2). […] The decision to proceed to the next dose cohort was determined by the Safety Monitoring Committee and followed a modified 3 + 3 escalation scheme. […] When ≥2 DLTs occurred in the first 23 days of a dose level, the next lower dose level was declared the MTD. Safety was monitored and DLTs were assessed in all dose cohorts. […] The food-effects cohort investigated the effects of food on the PK of pamiparib in patients with advanced solid tumours.
The QD dosing regimen was added as an amendment to the protocol with the purpose of exploring the feasibility of a more convenient regimen.
Safety and tolerability were assessed throughout the study by monitoring adverse events (AEs), serious AEs, clinical laboratory measurements and physical examinations. Adverse events were categorised according to their severity (National Cancer Institute Common Terminology Criteria for Adverse Events v4.03) and relationship to the study treatment.

C[C@]12CCCN1CC1=NNC(=O)c3cc(F)cc4[nH]c2c1c34 [pamiparib]
Abdominal pain, AE of any grade (2.5 mg BID (n = 4)): 1 (25.0) n (%)
Anaemia, AE of any grade (2.5 mg BID (n = 4)): 1 (25.0) n (%)
Ascites, AE of any grade (2.5 mg BID (n = 4)): 1 (25.0) n (%)
Back pain, AE of any grade (2.5 mg BID (n = 4)): 0 (0.0) n (%)
Constipation, AE of any grade (2.5 mg BID (n = 4)): 1 (25.0) n (%)
Cough, AE of any grade (2.5 mg BID (n = 4)): 0 (0.0) n (%)
Decreased appetite, AE of any grade (2.5 mg BID (n = 4)): 0 (0.0) n (%)
Diarrhoea, AE of any grade (2.5 mg BID (n = 4)): 0 (0.0) n (%)
Dose-limiting toxicity (2.5 mg BID (n = 4)): 0 (0.0) n (%)
Dyspnoea, AE of any grade (2.5 mg BID (n = 4)): 0 (0.0) n (%)
Fatigue, AE of any grade (2.5 mg BID (n = 4)): 1 (25.0) n (%)
Headache, AE of any grade (2.5 mg BID (n = 4)): 0 (0.0) n (%)
Hypoalbuminemia, AE of any grade (2.5 mg BID (n = 4)): 1 (25.0) n (%)
Hypomagnesemia, AE of any grade (2.5 mg BID (n = 4)): 0 (0.0) n (%)
Hypophosphatemia, AE of any grade (2.5 mg BID (n = 4)): 0 (0.0) n (%)
Increased AST, AE of any grade (2.5 mg BID (n = 4)): 0 (0.0) n (%)
Muscle spasms, AE of any grade (2.5 mg BID (n = 4)): 1 (25.0) n (%)
Nausea, AE of any grade (2.5 mg BID (n = 4)): 3 (75.0) n (%)
Neutropenia, AE of any grade (2.5 mg BID (n = 4)): 0 (0.0) n (%)
Non-cardiac chest pain, AE of any grade (2.5 mg BID (n = 4)): 0 (0.0) n (%)
Pain in extremity, AE of any grade (2.5 mg BID (n = 4)): 0 (0.0) n (%)
Peripheral sensory neuropathy, AE of any grade (2.5 mg BID (n = 4)): 0 (0.0) n (%)
Pleural effusion, AE of any grade (2.5 mg BID (n = 4)): 0 (0.0) n (%)
Pyrexia, AE of any grade (2.5 mg BID (n = 4)): 1 (25.0) n (%)
Treatment-emergent AE (2.5 mg BID (n = 4)): 4 (100.0) n (%)
Treatment-emergent AE: Grade 3 or higher (2.5 mg BID (n = 4)): 3 (75.0) n (%)
Treatment-emergent AE: Leading to death (2.5 mg BID (n = 4)): 0 (0.0) n (%)
Treatment-emergent AE: Leading to dose interruption (2.5 mg BID (n = 4)): 1 (25.0) n (%)
Treatment-emergent AE: Leading to dose modification (2.5 mg BID (n = 4)): 1 (25.0) n (%)
Treatment-emergent AE: Leading to dose reduction (2.5 mg BID (n = 4)): 0 (0.0) n (%)
Treatment-emergent AE: Leading to treatment discontinuation (2.5 mg BID (n = 4)): 0 (0.0) n (%)
Treatment-emergent AE: Serious (2.5 mg BID (n = 4)): 3 (75.0) n (%)
Treatment-related AE (2.5 mg BID (n = 4)): 3 (75.0) n (%)
Treatment-related AE: Grade 3 or higher (2.5 mg BID (n = 4)): 0 (0.0) n (%)
Treatment-related AE: Leading to death (2.5 mg BID (n = 4)): 0 (0.0) n (%)
Treatment-related AE: Leading to dose interruption (2.5 mg BID (n = 4)): 0 (0.0) n (%)
Treatment-related AE: Leading to dose modification (2.5 mg BID (n = 4)): 0 (0.0) n (%)
Treatment-related AE: Leading to dose reduction (2.5 mg BID (n = 4)): 0 (0.0) n (%)
Treatment-related AE: Leading to treatment discontinuation (2.5 mg BID (n = 4)): 0 (0.0) n (%)
Treatment-related AE: Serious (2.5 mg BID (n = 4)): 0 (0.0) n (%)
Upper respiratory tract infection, AE of any grade (2.5 mg BID (n = 4)): 1 (25.0) n (%)
Urinary tract infection, AE of any grade (2.5 mg BID (n = 4)): 0 (0.0) n (%)
Vomiting, AE of any grade (2.5 mg BID (n = 4)): 1 (25.0) n (%)
Abdominal pain, AE of any grade (5.0 mg BID (n = 3)): 0 (0.0) n (%)
Anaemia, AE of any grade (5.0 mg BID (n = 3)): 0 (0.0) n (%)
Ascites, AE of any grade (5.0 mg BID (n = 3)): 0 (0.0) n (%)
Back pain, AE of any grade (5.0 mg BID (n = 3)): 0 (0.0) n (%)
Constipation, AE of any grade (5.0 mg BID (n = 3)): 0 (0.0) n (%)
Cough, AE of any grade (5.0 mg BID (n = 3)): 0 (0.0) n (%)
Decreased appetite, AE of any grade (5.0 mg BID (n = 3)): 0 (0.0) n (%)
Diarrhoea, AE of any grade (5.0 mg BID (n = 3)): 1 (33.3) n (%)
Dose-limiting toxicity (5.0 mg BID (n = 3)): 0 (0.0) n (%)
Dyspnoea, AE of any grade (5.0 mg BID (n = 3)): 0 (0.0) n (%)
Fatigue, AE of any grade (5.0 mg BID (n = 3)): 1 (33.3) n (%)
Headache, AE of any grade (5.0 mg BID (n = 3)): 1 (33.3) n (%)
Hypoalbuminemia, AE of any grade (5.0 mg BID (n = 3)): 0 (0.0) n (%)
Hypomagnesemia, AE of any grade (5.0 mg BID (n = 3)): 0 (0.0) n (%)
Hypophosphatemia, AE of any grade (5.0 mg BID (n = 3)): 0 (0.0) n (%)
Increased AST, AE of any grade (5.0 mg BID (n = 3)): 0 (0.0) n (%)
Muscle spasms, AE of any grade (5.0 mg BID (n = 3)): 1 (33.3) n (%)
Nausea, AE of any grade (5.0 mg BID (n = 3)): 0 (0.0) n (%)
Neutropenia, AE of any grade (5.0 mg BID (n = 3)): 0 (0.0) n (%)
Non-cardiac chest pain, AE of any grade (5.0 mg BID (n = 3)): 0 (0.0) n (%)
Pain in extremity, AE of any grade (5.0 mg BID (n = 3)): 0 (0.0) n (%)
Peripheral sensory neuropathy, AE of any grade (5.0 mg BID (n = 3)): 1 (33.3) n (%)
Pleural effusion, AE of any grade (5.0 mg BID (n = 3)): 1 (33.3) n (%)
Pyrexia, AE of any grade (5.0 mg BID (n = 3)): 0 (0.0) n (%)
Treatment-emergent AE (5.0 mg BID (n = 3)): 3 (100.0) n (%)
Treatment-emergent AE: Grade 3 or higher (5.0 mg BID (n = 3)): 1 (33.3) n (%)
Treatment-emergent AE: Leading to death (5.0 mg BID (n = 3)): 0 (0.0) n (%)
Treatment-emergent AE: Leading to dose interruption (5.0 mg BID (n = 3)): 1 (33.3) n (%)
Treatment-emergent AE: Leading to dose modification (5.0 mg BID (n = 3)): 1 (33.3) n (%)
Treatment-emergent AE: Leading to dose reduction (5.0 mg BID (n = 3)): 0 (0.0) n (%)
Treatment-emergent AE: Leading to treatment discontinuation (5.0 mg BID (n = 3)): 0 (0.0) n (%)
Treatment-emergent AE: Serious (5.0 mg BID (n = 3)): 2 (66.7) n (%)
Treatment-related AE (5.0 mg BID (n = 3)): 2 (66.7) n (%)
Treatment-related AE: Grade 3 or higher (5.0 mg BID (n = 3)): 0 (0.0) n (%)
Treatment-related AE: Leading to death (5.0 mg BID (n = 3)): 0 (0.0) n (%)
Treatment-related AE: Leading to dose interruption (5.0 mg BID (n = 3)): 0 (0.0) n (%)
Treatment-related AE: Leading to dose modification (5.0 mg BID (n = 3)): 0 (0.0) n (%)
Treatment-related AE: Leading to dose reduction (5.0 mg BID (n = 3)): 0 (0.0) n (%)
Treatment-related AE: Leading to treatment discontinuation (5.0 mg BID (n = 3)): 0 (0.0) n (%)
Treatment-related AE: Serious (5.0 mg BID (n = 3)): 0 (0.0) n (%)
Upper respiratory tract infection, AE of any grade (5.0 mg BID (n = 3)): 0 (0.0) n (%)
Urinary tract infection, AE of any grade (5.0 mg BID (n = 3)): 0 (0.0) n (%)
Vomiting, AE of any grade (5.0 mg BID (n = 3)): 0 (0.0) n (%)
Abdominal pain, AE of any grade (10 mg BID (n = 3)): 1 (33.3) n (%)
Anaemia, AE of any grade (10 mg BID (n = 3)): 1 (33.3) n (%)
Ascites, AE of any grade (10 mg BID (n = 3)): 2 (66.7) n (%)
Back pain, AE of any grade (10 mg BID (n = 3)): 0 (0.0) n (%)
Constipation, AE of any grade (10 mg BID (n = 3)): 1 (33.3) n (%)
Cough, AE of any grade (10 mg BID (n = 3)): 1 (33.3) n (%)
Decreased appetite, AE of any grade (10 mg BID (n = 3)): 0 (0.0) n (%)
Diarrhoea, AE of any grade (10 mg BID (n = 3)): 1 (33.3) n (%)
Dose-limiting toxicity (10 mg BID (n = 3)): 0 (0.0) n (%)
Dyspnoea, AE of any grade (10 mg BID (n = 3)): 1 (33.3) n (%)
Fatigue, AE of any grade (10 mg BID (n = 3)): 0 (0.0) n (%)
Headache, AE of any grade (10 mg BID (n = 3)): 0 (0.0) n (%)
Hypoalbuminemia, AE of any grade (10 mg BID (n = 3)): 0 (0.0) n (%)
Hypomagnesemia, AE of any grade (10 mg BID (n = 3)): 1 (33.3) n (%)
Hypophosphatemia, AE of any grade (10 mg BID (n = 3)): 0 (0.0) n (%)
Increased AST, AE of any grade (10 mg BID (n = 3)): 0 (0.0) n (%)
Muscle spasms, AE of any grade (10 mg BID (n = 3)): 0 (0.0) n (%)
Nausea, AE of any grade (10 mg BID (n = 3)): 1 (33.3) n (%)
Neutropenia, AE of any grade (10 mg BID (n = 3)): 0 (0.0) n (%)
Non-cardiac chest pain, AE of any grade (10 mg BID (n = 3)): 0 (0.0) n (%)
Pain in extremity, AE of any grade (10 mg BID (n = 3)): 0 (0.0) n (%)
Peripheral sensory neuropathy, AE of any grade (10 mg BID (n = 3)): 0 (0.0) n (%)
Pleural effusion, AE of any grade (10 mg BID (n = 3)): 0 (0.0) n (%)
Pyrexia, AE of any grade (10 mg BID (n = 3)): 1 (33.3) n (%)
Treatment-emergent AE (10 mg BID (n = 3)): 3 (100.0) n (%)
Treatment-emergent AE: Grade 3 or higher (10 mg BID (n = 3)): 2 (66.7) n (%)
Treatment-emergent AE: Leading to death (10 mg BID (n = 3)): 0 (0.0) n (%)
Treatment-emergent AE: Leading to dose interruption (10 mg BID (n = 3)): 1 (33.3) n (%)
Treatment-emergent AE: Leading to dose modification (10 mg BID (n = 3)): 1 (33.3) n (%)
Treatment-emergent AE: Leading to dose reduction (10 mg BID (n = 3)): 0 (0.0) n (%)
Treatment-emergent AE: Leading to treatment discontinuation (10 mg BID (n = 3)): 0 (0.0) n (%)
Treatment-emergent AE: Serious (10 mg BID (n = 3)): 2 (66.7) n (%)
Treatment-related AE (10 mg BID (n = 3)): 0 (0.0) n (%)
Treatment-related AE: Grade 3 or higher (10 mg BID (n = 3)): 0 (0.0) n (%)
Treatment-related AE: Leading to death (10 mg BID (n = 3)): 0 (0.0) n (%)
Treatment-related AE: Leading to dose interruption (10 mg BID (n = 3)): 0 (0.0) n (%)
Treatment-related AE: Leading to dose modification (10 mg BID (n = 3)): 0 (0.0) n (%)
Treatment-related AE: Leading to dose reduction (10 mg BID (n = 3)): 0 (0.0) n (%)
Treatment-related AE: Leading to treatment discontinuation (10 mg BID (n = 3)): 0 (0.0) n (%)
Treatment-related AE: Serious (10 mg BID (n = 3)): 0 (0.0) n (%)
Upper respiratory tract infection, AE of any grade (10 mg BID (n = 3)): 0 (0.0) n (%)
Urinary tract infection, AE of any grade (10 mg BID (n = 3)): 0 (0.0) n (%)
Vomiting, AE of any grade (10 mg BID (n = 3)): 1 (33.3) n (%)
Abdominal pain, AE of any grade (20 mg BID (n = 3)): 2 (66.7) n (%)
Anaemia, AE of any grade (20 mg BID (n = 3)): 0 (0.0) n (%)
